In brackets after ≈: the same amount, converted by molar mass. Where two headings read alike, the source gives them in different places.
Columns and labels:
[1] = target: Pseudomonas aeruginosa LpxC enzyme (Pseudomonas aeruginosa (strain ATCC 15692 / DSM 22644 / CIP 104116 / JCM 14847 / LMG 12228 / 1C / PRS 101 / PAO1), UniProt P47205); experiment: IC50 Assay, LpxC Enzyme from P. aeruginosa (PA LpxC Enzyme IC50); assay type: biochemical
Method: In order to assess the compounds biological activity, selected in-vitro assays were conducted on selected compounds. One of the assays measured the compounds ability to disrupt the synthesis of lipopolysaccharide, LPS, which is a component of the outer membrane of Gram-negative bacteria. Disruption of this synthesis is lethal to the bacteria. The assay determined the compound's ability to inhibit LpxC, which is the first enzyme in the biosynthetic pathway for LPS (measured as IC50). Additionally, MICs (minimal inhibitory concentrations) were determined for several bacteria. The specific protocols are described below:
A) IC50 Assay, LpxC Enzyme from P. aeruginosa (Labled as PA LpxC Enzyme IC50
At the end of 1 hour, 5 ul of 1N HCl was added to stop the enzyme reaction; the plates were centrifuged, and then processed with the BioTrove Rapidfire HTMS Mass Spectrometry System. A no-enzyme control was used in calculating the IC50 values from the percent conversion values.

[2] = test system: Pseudomonas aeruginosa UI-18: Wild-type (PA-7); experiment: MIC determination (CLSI), PA-7; assay type: cell-based; conditions: for MIC: Pseudomonas aeruginosa
Summary of the method: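 Wild-type P. aeruginosa UI-18 tested for minimum inhibitory concentration. Broth/agar dilution following CLSI standards (M7-A7, M100-S18).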

[3] = test system: Klebsiella pneumoniae: Ciprofloxacin-resistant isolate, ESBL, clinical isolate (KP-3700); experiment: MIC determination (CLSI), KP-3700; assay type: cell-based
Summary of the method: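 Strain KP-3700, a clinical isolate producing extended-spectrum β-lactamases and resistant to ciprofloxacin, was tested. Minimum inhibitory concentrations determined via CLSI dilution methodology (M7-A7; M100-S18).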

[4] = test system: Escherichia coli EC-1: VOGEL, mouse virulent; experiment: MIC determination (CLSI), EC-1; assay type: cell-based; conditions: for MIC: Escherichia coli
Summary of the method: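 E. coli Vogel, a mouse-virulent strain (EC-1), was tested. MICs were set by dilution susceptibility testing per CLSI standards M7-A7/M100-S18.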

[5] = test system: Acinetobacter baumanii/haemolyticus: Multidrug-resistant clinical isolate (AB-3167); experiment: MIC determination (CLSI), AB-3167; assay type: cell-based; conditions: for MIC: Acinetobacter baumannii
Summary of the method: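 Multidrug-resistant clinical isolate AB-3167 (A. baumannii/haemolyticus) tested for minimum inhibitory concentration following CLSI dilution susceptibility standards M7-A7 and M100-S18.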

[6] = P. aeruginosa LpxC enzyme, read-out: PA LpxC enzyeme IC50
[7] = Pseudomonas aeruginosa UI-18 wild-type PA-7
[8] = Escherichia coli EC-1 VOGEL, mouse virulent
[9] = Acinetobacter baumanii/haemolyticus multidrug-resistant clinical isolate AB-3167
[10] = Pseudomonas aeruginosa UI-18 (PA-7)
[11] = Acinetobacter baumanii/haemolyticus AB-3167
[12] = Table 3, read-out: PA LpxC enzyeme IC^50

Row | SMILES | KP-3700 MIC [3] | IC50 [1, 6] [pM] | PA-7 MIC [2, 7] [µg/mL] | EC-1 MIC [4, 8] | AB-3167 MIC [5, 9] | further results
1 | CC(CCc1ccc(-c2ccc(F)cc2)c(O)c1)(C(=O)NO)S(C)(=O)=O (stereo not shown) [Example 21, 4-(4′-Fluoro-2-hydroxybiphenyl-4-yl)-N-hydroxy-2-methyl-2-(methylsulfonyl)butanamide] | ≧64 mg/L | – | – | – | – | IC50 ([1]; Table 1, read-out: PA LpxC enzyeme IC50): 15400 pM; MIC ([2]; Table 1, MIC, read-out: PA-7 (MIC)): 16 µg/mL (≈ 41.9 µM); MIC ([4]; read-out: EC-1: (MIC)): 16 µg/mL (≈ 41.9 µM); MIC ([5]; Table 1, MIC, read-out: AB-3167 (MIC)): ≥ 64 µg/mL
2 | CC(CCc1ccc(-c2ccc3c(c2)CNC3)cc1)(C(=O)NO)S(C)(=O)=O (stereo not shown) [Example 173] | ≧64 mg/L | 2680 | 16 | ≧64 mg/L | ≧64 mg/L | –
3 | CC(=O)c1ccc(-c2ccc(CC[C@](C)(C(=O)NO)S(C)(=O)=O)cc2)cn1 [Example 190] | 4 µg/mL | 246 | 2 | 4 µg/mL | ≧64 mg/L | –
4 | CC(CCc1ccc(-c2ccc(NS(C)(=O)=O)cc2)c(F)c1)(C(=O)NO)S(C)(=O)=O (stereo not shown) [Example 209] | 32 µg/mL | 2040 | – | – | – | PA-7 MIC [2, 10]: 8 µg/mL; EC-1 MIC ([4]; Escherichia coli EC-1): 8 µg/mL; AB-3167 MIC [5, 11]: ≧64 mg/L
5 | CC(C)CCc1noc(COc2ccc(CCC(C)(C(=O)NO)S(C)(=O)=O)cc2)n1 (stereo not shown) [Example 272, N-hydroxy-2-methyl-4-(4-{[3-(3-methylbutyl)-1,2,4-oxadiazol-5-yl]methoxy}phenyl)-2-(methylsulfonyl)butanamide] | ≧64 mg/L | – | – | – | – | IC50 [1, 12]: 1540 pM; MIC ([2]; Table 3, read-out: PA-7 MIC): ≥ 64 µg/mL; MIC ([4]; read-out: EC-1 MIC): 32 µg/mL (≈ 72.8 µM); MIC ([5]; Table 3, read-out: AB-3167 MIC): ≥ 64 µg/mL
6 | CC(CCc1ccc(-c2ccc(F)c(Cl)c2)cc1)(C(=O)NO)S(C)(=O)=O (stereo not shown) [Example 104] | 2 µg/mL | 127 | 1 | 0.5 µg/mL | 2 µg/mL | –
7 | CC(=O)c1ccc(-c2ccc(CCC(C)(C(=O)NO)S(C)(=O)=O)cc2)cc1 (stereo not shown) [Example 108] | 2 µg/mL | 176 | 0.5 | 0.5 µg/mL | 32 µg/mL | –
8 | CC(CCc1ccc(-c2ccc(C(=O)CO)cc2)cc1F)(C(=O)NO)S(C)(=O)=O (stereo not shown) [Example 183] | 4 µg/mL | 387 | 2 | 2 µg/mL | ≧64 mg/L | –
9 | CC(CCc1ccc(OCCC2CCOCC2)cc1)(C(=O)NO)S(C)(=O)=O (stereo not shown) [Example 281, N-hydroxy-2-methyl-2-(methylsulfonyl)-4-{4-[2-(tetrahydro-2H-pyran-4-yl)ethoxy]phenyl}butanamide] | ≧64 mg/L | – | – | – | – | IC50 [1, 12]: 6770 pM; MIC ([2]; Table 3, read-out: PA-7 MIC): 32 µg/mL (≈ 80.1 µM); MIC ([4]; read-out: EC-1 MIC): ≥ 64 µg/mL; MIC ([5]; Table 3, read-out: AB-3167 MIC): ≥ 64 µg/mL
10 | Cc1cc(-c2ccc(F)cc2)ccc1CCC(C)(C(=O)NO)S(C)(=O)=O (stereo not shown) [Example 157] | 4 µg/mL | 337 | 4 | 1 µg/mL | 8 µg/mL | –
11 | CC(CCc1ccc(-c2cccc(C#N)c2)cc1)(C(=O)NO)S(C)(=O)=O (stereo not shown) [Example 64] | 8 µg/mL | 739 | 2 | 4 µg/mL | ≧64 mg/L | –
12 | CC(CCc1ccc(-c2cc(F)ccc2F)cc1)(C(=O)NO)S(C)(=O)=O (stereo not shown) [Example 38] | 32 µg/mL | 752 | 1 | 2 µg/mL | 16 µg/mL | –
13 | CC(CCc1ccc(-c2ccc3nonc3c2)cc1)(C(=O)NO)S(C)(=O)=O (stereo not shown) [Example 174] | 8 µg/mL | 540 | 2 | 4 µg/mL | ≧64 mg/L | –
14 | COc1cc(CCC(C)(C(=O)NO)S(C)(=O)=O)ccc1-c1ccccc1 (stereo not shown) [Example 171] | 16 µg/mL | 14600 | 32 | 4 µg/mL | ≧64 mg/L | –
15 | CC(=O)c1ccc(-c2ccc(CCC(C)(C(=O)NO)S(C)(=O)=O)cc2)cc1O (stereo not shown) [Example 181] | 8 µg/mL | 138 | 2 | 0.5 µg/mL | 8 µg/mL | –
16 | CC(CCc1ccc(-c2cccc(Cl)c2Cl)cc1)(C(=O)NO)S(C)(=O)=O (stereo not shown) [Example 59] | 2 µg/mL | 213 | 2 | 0.5 µg/mL | 2 µg/mL | –
17 | CC(CCc1ccc(-c2ccccc2F)cc1)(C(=O)NO)S(C)(=O)=O (stereo not shown) [Example 50] | 8 µg/mL | 731 | 0.5 | 2 µg/mL | 16 µg/mL | –
18 | CN1CCN(c2ccc(-c3ccc(CCC(C)(C(=O)NO)S(C)(=O)=O)cc3)cc2)CC1 (stereo not shown) [Example 166] | 16 µg/mL | 1170 | 2 | 4 µg/mL | ≧64 mg/L | –
19 | C[C@@](CCc1ccc(-c2ccc(C(=O)N3CCC[C@@H]3CO)cc2)cc1)(C(=O)NO)S(C)(=O)=O [Example 216] | ≧64 mg/L | 4020 | – | – | – | PA-7 MIC [2, 10]: 32 µg/mL; EC-1 MIC ([4]; Escherichia coli EC-1): 32 µg/mL; AB-3167 MIC [5, 11]: ≧64 mg/L
20 | CC(CCc1ccc(-c2ccc(C(=O)CO)cc2)cc1)(C(=O)NO)S(C)(=O)=O (stereo not shown) [Example 169] | 4 µg/mL | 200 | 1 | 2 µg/mL | 32 µg/mL | –
21 | CC(CCc1ccc(-c2cnc3ccccc3c2)cc1F)(C(=O)NO)S(C)(=O)=O (stereo not shown) [Example 200] | 8 µg/mL | 463 | 4 | 1 µg/mL | ≧64 mg/L | –
22 | Cc1cc(-c2ccc(C#N)cc2)ccc1CCC(C)(C(=O)NO)S(C)(=O)=O (stereo not shown) [Example 161] | 16 µg/mL | 725 | 4 | 1 µg/mL | ≧64 mg/L | –
23 | CC(C)CCOc1ccc(CCC(C)(C(=O)NO)S(C)(=O)=O)cc1 (stereo not shown) [Example 292, N-hydroxy-2-methyl-4-[4-(3-methylbutoxy)phenyl]-2-(methylsulfonyl)butanamide] | ≧64 mg/L | – | – | – | – | IC50 [1, 12]: 1110 pM; MIC ([2]; Table 3, read-out: PA-7 MIC): 8 µg/mL (≈ 22.4 µM); MIC ([4]; read-out: EC-1 MIC): 16 µg/mL (≈ 44.8 µM); MIC ([5]; Table 3, read-out: AB-3167 MIC): 16 µg/mL (≈ 44.8 µM)
24 | COc1ccc(-c2ccc(CC[C@](C)(C(=O)NO)S(C)(=O)=O)cc2)cn1 [Example 212] | 16 µg/mL | 237 | – | – | – | PA-7 MIC [2, 10]: 1 µg/mL; EC-1 MIC ([4]; Escherichia coli EC-1): 4 µg/mL; AB-3167 MIC [5, 11]: ≧64 mg/L
25 | C[C@@](CCc1ccc(-c2ccc3c(c2)CNC3=O)cc1)(C(=O)NO)S(C)(=O)=O [Example 199] | 32 µg/mL | 266 | 2 | 8 µg/mL | ≧64 mg/L | –
26 | C[C@@](CCc1ccc(-c2ccc(OCCN3CCOCC3)cc2)cc1)(C(=O)NO)S(C)(=O)=O [Example 172] | 4 µg/mL | 512 | 4 | 0.5 µg/mL | ≧64 mg/L | –
27 | Cc1ccc(F)c(-c2noc(COc3ccc(CCC(C)(C(=O)NO)S(C)(=O)=O)cc3)n2)c1 (stereo not shown) [Example 291, 4-(4-{[3-(2-fluoro-5-methylphenyl)-1,2,4-oxadiazol-5-yl]methoxy}phenyl)-N-hydroxy-2-methyl-2-(methylsulfonyl)butanamide] | ≧64 mg/L | – | – | – | – | IC50 [1, 12]: 9270 pM; MIC ([2]; Table 3, read-out: PA-7 MIC): ≥ 64 µg/mL; MIC ([4]; read-out: EC-1 MIC): 16 µg/mL (≈ 33.5 µM); MIC ([5]; Table 3, read-out: AB-3167 MIC): ≥ 64 µg/mL
28 | CC(CCc1ccc(OCc2ccc(C(F)(F)F)cc2)cc1)(C(=O)NO)S(C)(=O)=O (stereo not shown) [Example 301, N-hydroxy-2-methyl-2-(methylsulfonyl)-4-(4-{[4-(trifluoromethyl)benzyl]oxy}phenyl)butanamide] | 8 µg/mL | – | – | – | – | IC50 [1, 12]: 2080 pM; MIC ([2]; Table 3, read-out: PA-7 MIC): 8 µg/mL (≈ 18 µM); MIC ([4]; read-out: EC-1 MIC): 4 µg/mL (≈ 8.98 µM); MIC ([5]; Table 3, read-out: AB-3167 MIC): 4 µg/mL (≈ 8.98 µM)
29 | CC(CCc1ccc(-c2ccc(C#N)cc2)cc1F)(C(=O)NO)S(C)(=O)=O (stereo not shown) [Example 168] | 2 µg/mL | 427 | 1 | 1 µg/mL | ≧64 mg/L | –

Reference: US8853258B2, “C-linked hydroxamic acid derivatives useful as antibacterial agents” (Pfizer Inc., priority 2009, dated 2014)
